Results as given in patent US20110046217A1, “USE OF 2,2'-CYCLOLIGNANS FOR INDUCING, RESTORING OR STIMULATING THE PIGMENTATION OF THE SKIN, HAIR OR HAIRS” (priority 2007, published 2011).
“And” between values parts separate entries of the source, which are not always exact repeats. Equal values may be shown once.

How the values were obtained:
[1] = tested on: keratinocytes; test: Phagocytic activity of the keratinocytes; format: cell-based
[2] = tested on: melanocyte; test: Formation of a dense dendritic network in the melanocyte; format: cell-based
[3] = tested on: B16 melanocytes; test: MTT test and morphological observations, viability of B16 melanocytes; format: cell-based; conditions: for MTT (%): Table 2, plate 1; for MTT test, average / MTT test, single reading / viability (%): 72 h contact; for % cell viability: Table 4
[4] = tested on: Caucasian primary melanocytes; test: Melanin produced in normal human melanocytes; format: cell-based; conditions: 30 μM, 4 days, in the presence of L-dopa (50 μM), vs control
Procedure: The study was carried out on Caucasian primary melanocytes during culturing. The test and reference formulations were applied in the presence of L-dopa which is the substrate of tyrosinase (50 μM) (Sigma, D9628-5G) for 4 days, the culture medium having been renewed after 2 days. The product GPN000715 was applied at three different concentrations: 10 μM, 30 μM and 80 μM. An application of 100 nM of the reference element (MSH) was carried out, and also an application of 0.1 mM of arbutin. The untreated control cells (CTL) stayed in the culture medium.
The melanocytes were seeded in 6-well plates at a cell density of +/−100 000 cells. One week after seeding the cells, the test and reference products were applied, in the presence of L-dopa. After 4 days of treatment, cell lysis was carried out using a solution of NaOH (1N) (Merck, 109956) over 24 hours, at 37° C. The cell lysates were then centrifuged for 10 minutes, then 120 μl of each lysate was transferred into a 96-well plate in order to read the absorbance at 450 nm. The melanin content of each sample was quantified by comparison with the absorbances from the standard curve made with synthetic melanin (Sigma, M8631-100MG), ranging from 0 to 100 μg/ml.
FIG. 1 represents a quantification of the production of melanin by melanocytes, in a single layer, after 4 days of application in the presence of the test and reference elements. […]

[5] = tested on: B16 melanocytes; test: Melanin assay, synthesis of melanin by B16 melanocytes; format: cell-based; conditions: for melanin production in the melanocyte cultures: treated at non-toxic doses
Procedure: The melanogenesis-stimulating effect of gomisin A was measured on B16 melanocyte cultures.
For gomisin A, the following were determined: • after culturing for 10 days under standard conditions, in 24-well plates, in Promocell medium free of “phorbol myristate acetate” (PMA):
the amount of melanin present in the cultures, by spectrophotometric measurement of the melanin produced, after alkaline extraction, relative to 100% of the control (the control corresponds to the test performed without test compound).
The melanogenesis-stimulating effect of gomisin C was measured on B16 melanocyte cultures.
For gomisin C, the following were determined: • after culturing for 10 days under standard conditions, in 24-well plates, in Promocell medium free of “phorbol myristate acetate” (PMA): […]

[6] = tested on: follicle (hair bulb); test: Pigmentation and survival of the hair follicle

COc1cc2c(c(OC)c1OC)-c1c(cc3c(c1OC)OCO3)C[C@H](C)[C@](C)(O)C2 [Gomisin A, gomisin A]
phagocytic activity of the keratinocytes [1]: stimulating | formation of a dense dendritic network in the melanocyte [2]: stimulating | MTT (%) ([3]; 0.0022 mg/ml): 102% | MTT (%) ([3]; 0.0067 mg/ml): 99% | MTT (%) ([3]; 0.02 mg/ml): 102% | MTT test, average ([3]; gomisin A 0.002 mg/ml): 2.001 | MTT test, single reading ([3]; gomisin A 0.002 mg/ml): 2.022 and 2.112 and 2.077 and 1.920 and 1.933 and 1.942 | viability (%) ([3]; gomisin A 0.002 mg/ml): 105% | MTT test, average ([3]; gomisin A 0.007 mg/ml): 2.081 | MTT test, single reading ([3]; gomisin A 0.007 mg/ml): 2.046 and 2.137 and 2.227 and 2.061 and 1.966 | viability (%) ([3]; gomisin A 0.007 mg/ml): 109% | MTT test, average ([3]; gomisin A 0.02 mg/ml): 2.128 | MTT test, single reading ([3]; gomisin A 0.02 mg/ml): 2.227 and 2.046 and 2.241 and 1.988 and 2.085 and 2.182 | viability (%) ([3]; gomisin A 0.02 mg/ml): 112% | MTT test, average ([3]; gomisin A 2E−04 mg/ml): 1.850 | MTT test, single reading ([3]; gomisin A 2E−04 mg/ml): 1.878 and 1.932 and 1.972 and 1.721 and 1.807 and 1.787 | viability (%) ([3]; gomisin A 2E−04 mg/ml): 97% | MTT test, average ([3]; gomisin A 3E−05 mg/ml): 1.835 | MTT test, single reading ([3]; gomisin A 3E−05 mg/ml): 1.961 and 1.784 and 1.853 and 1.764 and 1.910 and 1.740 | viability (%) ([3]; gomisin A 3E−05 mg/ml): 96% | MTT test, average ([3]; gomisin A 7E−04 mg/ml): 1.974 | MTT test, single reading ([3]; gomisin A 7E−04 mg/ml): 1.976 and 1.996 and 2.147 and 1.844 and 1.896 and 1.987 | viability (%) ([3]; gomisin A 7E−04 mg/ml): 104% | MTT test, average ([3]; gomisin A 8E−05 mg/ml): 1.886 | MTT test, single reading ([3]; gomisin A 8E−05 mg/ml): 1.964 and 1.891 and 1.965 and 1.899 and 1.829 and 1.770 | viability (%) ([3]; gomisin A 8E−05 mg/ml): 99% | MTT test, average ([3]; gomisin A 9.1E−06 mg/ml): 1.910 | MTT test, single reading ([3]; gomisin A 9.1E−06 mg/ml): 1.837 and 1.963 and 1.930 and 1.951 and 1.879 and 1.901 | viability (%) ([3]; gomisin A 9.1E−06 mg/ml): 100% | increase of the amount of melanin in normal human melanocytes [4]: ~40% | Melanin ([5]; Table 2, plate 1, 0.0022 mg/ml): 16.62 µg/mL | Melanin % Control ([5]; Table 2, plate 1, 0.0022 mg/ml): 121% | Melanin ([5]; Table 2, plate 1, 0.0067 mg/ml): 22.66 µg/mL | Melanin % Control ([5]; Table 2, plate 1, 0.0067 mg/ml): 164% | Melanin ([5]; Table 2, plate 1, 0.02 mg/ml): 27.73 µg/mL | Melanin % Control ([5]; Table 2, plate 1, 0.02 mg/ml): 201% | melanin production in the melanocyte cultures [5]: significant increase in melanin production | degeneration and survival of the follicle [6]: limits degeneration and increases the survival of the follicle | pigmentation of the follicle (hair bulb) [6]: substantially stimulates the pigmentation of the follicle

COc1cc2c(c(OC)c1OC)-c1c(cc3c(c1OC)OCO3)C[C@H](C)[C@](C)(O)[C@H]2OC(=O)c1ccccc1 [Gomisin C, gomisin C]
% cell viability ([3]; 0.4 μg/ml): 102% | % cell viability ([3]; 2 μg/ml): 97% | % cell viability ([3]; 8 μg/ml): 101% | MTT test, average ([3]; gomisin C 0.0002 %): 2.783 | MTT test, single reading ([3]; gomisin C 0.0002 %): 2.786 and 2.783 and 2.780 | viability (%) ([3]; gomisin C 0.0002 %): 101% | MTT test, average ([3]; gomisin C 0.0008 %): 2.844 | MTT test, single reading ([3]; gomisin C 0.0008 %): 2.834 and 2.824 and 2.873 | viability (%) ([3]; gomisin C 0.0008 %): 103% | MTT test, average ([3]; gomisin C 0.004 %): 1.899 | MTT test, single reading ([3]; gomisin C 0.004 %): 1.871 and 1.873 and 1.954 | viability (%) ([3]; gomisin C 0.004 %): 69% | MTT test, average ([3]; gomisin C 0.02 %): 1.136 | MTT test, single reading ([3]; gomisin C 0.02 %): 1.208 and 1.146 and 1.205 | viability (%) ([3]; gomisin C 0.02 %): 43% | MTT test, average ([3]; gomisin C 1E−06 %): 2.811 | MTT test, single reading ([3]; gomisin C 1E−06 %): 2.793 and 2.813 and 2.827 | viability (%) ([3]; gomisin C 1E−06 %): 102% | MTT test, average ([3]; gomisin C 2.56E−07 %): 2.790 | MTT test, single reading ([3]; gomisin C 2.56E−07 %): 2.786 and 2.781 and 2.804 | viability (%) ([3]; gomisin C 2.56E−07 %): 101% | MTT test, average ([3]; gomisin C 3E−05 %): 2.801 | MTT test, single reading ([3]; gomisin C 3E−05 %): 2.789 and 2.795 and 2.818 | viability (%) ([3]; gomisin C 3E−05 %): 101% | MTT test, average ([3]; gomisin C 6E−06 %): 2.792 | MTT test, single reading ([3]; gomisin C 6E−06 %): 2.778 and 2.796 and 2.801 | viability (%) ([3]; gomisin C 6E−06 %): 101% | Melanin ([5]; Table 4, 0.4 μg/ml): 16.66 µg/mL | Melanin % Control ([5]; Table 4, 0.4 μg/ml): 103% | Melanin ([5]; Table 4, 2 μg/ml): 17.46 µg/mL | Melanin % Control ([5]; Table 4, 2 μg/ml): 108% | Melanin ([5]; Table 4, 8 μg/ml): 19.44 µg/mL | Melanin % Control ([5]; Table 4, 8 μg/ml): 121% | melanin production in the melanocyte cultures [5]: significant increase in melanin production

CC(C)Cn1c(=O)n(C)c(=O)c2[nH]cnc21 [IBMX, reference compound]
MTT (%) ([3]; 200 μM): 99% | % cell viability ([3]; 8 μM): 96% | % cell viability ([3]; 40 μM): 94% | % cell viability ([3]; 200 μM): 99% | Melanin ([5]; Table 2, plate 1, 200 μM): 173.77 µg/mL | Melanin % Control ([5]; Table 2, plate 1, 200 μM): 1261% | Melanin ([5]; Table 4, 8 μM): 18.88 µg/mL | Melanin % Control ([5]; Table 4, 8 μM): 117% | Melanin ([5]; Table 4, 40 μM): 25.91 µg/mL | Melanin % Control ([5]; Table 4, 40 μM): 161% | Melanin ([5]; Table 4, 200 μM): 90.45 µg/mL | Melanin % Control ([5]; Table 4, 200 μM): 561%
